Structures can show the parent of a compound that is named as a salt.
target: T1, URAT-1 transporter (Homo sapiens, UniProt Q96S37); experiment: URAT-1 inhibitor activity: [14C]-uric acid uptake into CHO-URAT1(L)GFP#8 (CHO#8) cells, scintillation proximity; type: cell-based
T1 construct: expressed in transfected cells
Procedure, shortened: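 Scintillation proximity read-out of 30 nM (final) [14C]-uric acid uptake over three hours at room temperature in chloride-free HEPES buffer pH 7.4. Compounds, 0–10 μM final with 0.25% DMSO, were added 15 minutes before substrate; cells were a clonal CHO line with human URAT1(L)-eGFP, preincubated 1 hour in chloride buffer.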

T1 sequence (Q96S37 with tags, fused parts or gaps): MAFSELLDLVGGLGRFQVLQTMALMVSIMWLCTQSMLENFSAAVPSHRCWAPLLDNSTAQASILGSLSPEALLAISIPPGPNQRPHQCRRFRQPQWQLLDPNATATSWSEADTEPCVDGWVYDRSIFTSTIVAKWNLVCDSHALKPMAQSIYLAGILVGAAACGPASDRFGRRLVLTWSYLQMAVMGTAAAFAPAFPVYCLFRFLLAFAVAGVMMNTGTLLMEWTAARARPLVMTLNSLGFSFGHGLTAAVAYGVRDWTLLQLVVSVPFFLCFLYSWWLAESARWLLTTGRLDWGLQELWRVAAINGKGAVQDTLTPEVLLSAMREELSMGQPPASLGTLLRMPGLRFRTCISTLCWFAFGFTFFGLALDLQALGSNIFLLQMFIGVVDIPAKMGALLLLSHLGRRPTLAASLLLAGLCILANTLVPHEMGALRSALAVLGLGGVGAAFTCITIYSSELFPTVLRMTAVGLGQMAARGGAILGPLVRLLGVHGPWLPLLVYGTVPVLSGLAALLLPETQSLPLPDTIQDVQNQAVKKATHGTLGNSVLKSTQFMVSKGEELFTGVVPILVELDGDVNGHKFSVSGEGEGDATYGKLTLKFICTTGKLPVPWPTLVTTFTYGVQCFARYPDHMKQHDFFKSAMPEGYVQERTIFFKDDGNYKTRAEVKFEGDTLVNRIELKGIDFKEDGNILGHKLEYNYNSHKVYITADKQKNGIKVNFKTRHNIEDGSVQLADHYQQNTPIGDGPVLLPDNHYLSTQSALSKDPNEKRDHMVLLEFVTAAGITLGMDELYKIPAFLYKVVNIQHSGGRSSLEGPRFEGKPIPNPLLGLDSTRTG

IC50	SMILES
1.73 µM	CC(C)(O)c1cccc(Oc2ccc(S(=O)(=O)Nc3ncc(F)s3)cc2C#N)c1 [Example 135, 3-cyano-N-(5-fluoro-1,3-thiazol-2-yl)-4-[3-(2-hydroxypropan-2-yl)phenoxy]benzenesulfonamide]
> 8.95 µM	CC(C)(C)c1cccc(Oc2ccc(S(=O)(=O)Nc3ncc(F)s3)cc2C#N)c1 [Example 137, 4-(3-tert-butylphenoxy)-3-cyano-N-(5-fluoro-1,3-thiazol-2-yl)benzenesulfonamide]
0.54 µM	CCc1cc(Oc2ccc(S(=O)(=O)Nc3ncc(F)s3)cc2C#N)ccc1Cl [Example 142, 4-(4-chloro-3-ethylphenoxy)-3-cyano-N-(5-fluoro-1,3-thiazol-2-yl)benzenesulfonamide]
> 10 µM	N#Cc1cc(S(=O)(=O)Nc2ncc(F)s2)ccc1Oc1ccc(CCO)cc1 [Example 146, 3-cyano-N-(5-fluoro-1,3-thiazol-2-yl)-4-[4-(2-hydroxyethyl)phenoxy]benzenesulfonamide]
1.08 µM	CN(C)c1ccc(Oc2ccc(S(=O)(=O)Nc3nccs3)cc2C#N)cn1 [Example 186, 3-cyano-4-{[6-(dimethylamino)pyridin-3-yl]oxy}-N-(1,3-thiazol-2-yl)benzenesulfonamide]
> 6.64 µM	CNc1ccc(Oc2ccc(S(=O)(=O)Nc3nccs3)cc2C#N)cn1 [Example 187, 3-cyano-4-{[6-(methylamino)pyridin-3-yl]oxy}-N-(1,3-thiazol-2-yl)benzenesulfonamide]
0.688 µM	CC(C)Nc1ccc(Oc2ccc(S(=O)(=O)Nc3nccs3)cc2C#N)cn1 [Example 188, 3-cyano-4-{[6-(propan-2-ylamino)pyridin-3-yl]oxy}-N-(1,3-thiazol-2-yl)benzenesulfonamide]
> 10 µM	CCNc1ccc(Oc2ccc(S(=O)(=O)Nc3nccs3)cc2C#N)cn1 [Example 189, 3-cyano-4-{[6-(ethylamino)pyridin-3-yl]oxy}-N-(1,3-thiazol-2-yl)benzenesulfonamide]
> 10 µM	N#Cc1cc(S(=O)(=O)Nc2nccs2)ccc1Oc1ccc(OCC(F)(F)F)nc1 [Example 190, 3-cyano-N-(1,3-thiazol-2-yl)-4-{[6-(2,2,2-trifluoroethoxy)pyridin-3-yl]oxy}benzenesulfonamide]
> 10 µM	CCOc1ccc(Oc2ccc(S(=O)(=O)Nc3nccs3)cc2C#N)cn1 [Example 191, 3-cyano-4-[(6-ethoxypyridin-3-yl)oxy]-N-(1,3-thiazol-2-yl)benzenesulfonamide]
> 10 µM	CC(C)Oc1ccc(Oc2ccc(S(=O)(=O)Nc3nccs3)cc2C#N)cn1 [Example 192, 3-cyano-4-{[6-(propan-2-yloxy)pyridin-3-yl]oxy}-N-(1,3-thiazol-2-yl)benzenesulfonamide]
0.077 µM	N#Cc1cc(S(=O)(=O)Nc2nccs2)ccc1Oc1ccc(F)c(F)c1 [Example 243, 3-cyano-4-(3,4-difluorophenoxy)-N-(1,3-thiazol-2-yl)benzenesulfonamide]
0.365 µM	N#Cc1ccc(Oc2ccc(S(=O)(=O)Nc3ncc(F)s3)cc2C#N)cc1Cl [Example 244, 4-(3-chloro-4-cyanophenoxy)-3-cyano-N-(5-fluoro-1,3-thiazol-2-yl)benzenesulfonamide]
2 µM	N#Cc1cc(Oc2ccc(S(=O)(=O)Nc3ncc(F)s3)cc2C#N)ccc1F [Example 245, 3-cyano-4-(3-cyano-4-fluorophenoxy)-N-(5-fluoro-1,3-thiazol-2-yl)benzenesulfonamide]
0.699 µM	N#Cc1cc(Oc2ccc(S(=O)(=O)Nc3nccs3)cc2C#N)ccc1F [Example 246, 3-cyano-4-(3-cyano-4-fluorophenoxy)-N-(1,3-thiazol-2-yl)benzenesulfonamide]
0.45 µM	N#Cc1ccc(Oc2ccc(S(=O)(=O)Nc3ncc(Cl)s3)cc2C#N)cc1Cl [Example 247, 4-(3-chloro-4-cyanophenoxy)-N-(5-chloro-1,3-thiazol-2-yl)-3-cyanobenzenesulfonamide]
> 1.2 µM	N#Cc1cc(S(=O)(=O)Nc2ncc(F)s2)ccc1Oc1ccc(F)c(F)c1 [Example 248, 3-cyano-4-(3,4-difluorophenoxy)-N-(5-fluoro-1,3-thiazol-2-yl)benzenesulfonamide]

Further lines, the compound ahead of its results:

SMILES	IC50
N#Cc1cc(S(=O)(=O)Nc2ncc(F)s2)ccc1Oc1cc(C(F)(F)F)ccc1Cl [Example 136, 4-[2-chloro-5-(trifluoromethyl)phenoxy]-3-cyano-N-(5-fluoro-1,3-thiazol-2-yl)benzenesulfonamide]	0.464 µM
N#Cc1cc(S(=O)(=O)Nc2ncc(F)s2)ccc1Oc1cc(C(F)(F)F)cc(C(F)(F)F)c1 [Example 138, 4-[3,5-bis(trifluoromethyl)phenoxy]-3-cyano-N-(5-fluoro-1,3-thiazol-2-yl)benzenesulfonamide]	3.47 µM
N#Cc1cc(S(=O)(=O)Nc2ncc(F)s2)ccc1Oc1cc(F)cc(C(F)(F)F)c1 [Example 139, 3-cyano-N-(5-fluoro-1,3-thiazol-2-yl)-4-[3-fluoro-5-(trifluoromethyl)phenoxy]benzenesulfonamide]	3.38 µM
N#Cc1cc(S(=O)(=O)Nc2ncc(F)s2)ccc1Oc1ccc(C#N)c(C(F)(F)F)c1 [Example 140, 3-cyano-4-[4-cyano-3-(trifluoromethyl)phenoxy]-N-(5-fluoro-1,3-thiazol-2-yl)benzenesulfonamide]	> 7.3 µM
N#Cc1cc(S(=O)(=O)Nc2ncc(F)s2)ccc1Oc1ccc(Cl)c(C(F)(F)F)c1 [Example 141, 4-[4-chloro-3-(trifluoromethyl)phenoxy]-3-cyano-N-(5-fluoro-1,3-thiazol-2-yl)benzenesulfonamide]	0.737 µM
N#Cc1cc(S(=O)(=O)Nc2ncc(F)s2)ccc1Oc1ccc(F)c(C(F)(F)F)c1 [Example 143, 3-cyano-N-(5-fluoro-1,3-thiazol-2-yl)-4-[4-fluoro-3-(trifluoromethyl)phenoxy]benzenesulfonamide]	0.566 µM
N#Cc1cc(S(=O)(=O)Nc2ncc(F)s2)ccc1Oc1ccc(CCO)cc1I [Example 145, 3-cyano-N-(5-fluoro-1,3-thiazol-2-yl)-4-[4-(2-hydroxyethyl)-2-iodophenoxy]benzene-sulfonamide]	0.803 µM
N#Cc1cc(S(=O)(=O)Nc2ncc(F)s2)ccc1Oc1ccc(CCCO)cc1 [Example 147, 3-cyano-N-(5-fluoro-1,3-thiazol-2-yl)-4-[4-(3-hydroxypropyl)phenoxy]benzenesulfonamide]	> 10 µM
N#Cc1cc(S(=O)(=O)Nc2cscn2)ccc1Oc1ccc(Cl)cc1OC(F)F [Example 148, 4-[4-chloro-2-(difluoromethoxy)phenoxy]-3-cyano-N-(1,3-thiazol-4-yl)benzenesulfonamide]	0.118 µM
O=S(=O)(Nc1cscn1)c1cc(Cl)c(Oc2ccc(F)cc2I)cc1F [Example 149, 5-chloro-2-fluoro-4-(4-fluoro-2-iodophenoxy)-N-(1,3-thiazol-4-yl)benzenesulfonamide]	0.494 µM
COc1cc(Cl)ccc1Oc1cc(F)c(S(=O)(=O)Nc2nncs2)cc1Cl [Example 150, 5-chloro-4-(4-chloro-2-methoxyphenoxy)-2-fluoro-N-(1,3,4-thiadiazol-2-yl)benzenesulfonamide]	2.51 µM
O=S(=O)(Nc1ncns1)c1cc(Cl)c(Oc2ccc(Cl)cc2OC(F)(F)F)cc1F [Example 151, 5-chloro-4-[4-chloro-2-(trifluoromethoxy)phenoxy]-2-fluoro-N-(1,2,4-thiadiazol-5-yl)benzenesulfonamide]	0.508 µM
O=S(=O)(Nc1nncs1)c1cc(Cl)c(Oc2ccc(Cl)cc2OC(F)F)cc1F [Example 152, 5-chloro-4-[4-chloro-2-(difluoromethoxy)phenoxy]-2-fluoro-N-(1,3,4-thiadiazol-2-yl)benzenesulfonamide]	> 10 µM
COc1cc(Cl)ccc1Oc1cc(F)c(S(=O)(=O)Nc2ncns2)cc1Cl [Example 154, 5-chloro-4-(4-chloro-2-methoxyphenoxy)-2-fluoro-N-(1,2,4-thiadiazol-5-yl)benzenesulfonamide]	1.63 µM
N#Cc1ccc(Oc2cc(F)c(S(=O)(=O)Nc3ncns3)cc2Cl)c(OC(F)F)c1 [Example 155, 5-chloro-4-[4-cyano-2-(difluoromethoxy)phenoxy]-2-fluoro-N-(1,2,4-thiadiazol-5-yl)benzenesulfonamide diethylamine salt]	> 7.25 µM
N#Cc1ccc(OC(F)F)c(Oc2cc(F)c(S(=O)(=O)Nc3ncns3)cc2Cl)c1 [Example 156, 5-chloro-4-[5-cyano-2-(difluoromethoxy)phenoxy]-2-fluoro-N-(1,2,4-thiadiazol-5-yl)benzenesulfonamide diethylamine salt]	3.43 µM
COc1cc(Cl)cc(Cl)c1Oc1cc(F)c(S(=O)(=O)Nc2nncs2)cc1Cl [Example 157, 5-chloro-4-(2,4-dichloro-6-methoxyphenoxy)-2-fluoro-N-(1,3,4-thiadiazol-2-yl)benzenesulfonamide diethylamine salt]	2.88 µM
O=S(=O)(Nc1cscn1)c1cc(Cl)c(Oc2cc(Cl)ccc2OC(F)F)cc1F [Example 158, 5-chloro-4-[5-chloro-2-(difluoromethoxy)phenoxy]-2-fluoro-N-(1,3-thiazol-4-yl)benzenesulfonamide]	3.21 µM
O=S(=O)(Nc1cscn1)c1cc(Cl)c(Oc2ccc(Cl)cc2OC(F)F)cc1F [Example 159, 5-chloro-4-[4-chloro-2-(difluoromethoxy)phenoxy]-2-fluoro-N-(1,3-thiazol-4-yl)benzenesulfonamide]	0.499 µM
O=S(=O)(Nc1cscn1)c1cc(Cl)c(Oc2cc(C(F)(F)F)ccc2I)cc1F [Example 160, 5-chloro-2-fluoro-4-[2-iodo-5-(trifluoromethyl)phenoxy]-N-(1,3-thiazol-4-yl)benzene-sulfonamide]	0.347 µM
O=S(=O)(Nc1cscn1)c1cc(Cl)c(Oc2ccc(C(F)(F)F)cc2Br)cc1F [Example 161, 4-[2-bromo-4-(trifluoromethyl)phenoxy]-5-chloro-2-fluoro-N-(1,3-thiazol-4-yl)benzenesulfonamide]	> 4.85 µM

— patent publication US20140315933A1, “CHEMICAL COMPOUNDS” (Pfizer Limited, priority 2013, published 2014)
